Reference: PMC10108347, “Heterobifunctional Ligase Recruiters Enable pan-Degradation of Inhibitor of Apoptosis Proteins” (Journal of Medicinal Chemistry, 2023)
“Also recorded” adds a separate entry of the source. Like-named read-outs stand apart in the source and are kept apart here. Each block holds one molecule with its values, some of them ahead of it.

Columns and labels:
[1] = tested on: IAPs (cIAP1, cIAP2, XIAP); experiment: Immunoblotting of IAPs in MM.1S cells, overall degradation profile, time course and washout; assay type: cell-based; settings: 16 h, western blot, concentration (10 nM to 1 μM)
Experimental: Next, we examined the persistence of IAP degradation in MM.1S cells after a single exposure to 1 μM of 9 and subsequent removal of the compound. […] The reliance on CRL2^VHL was assessed with a neddylation inhibitor MLN4924, which blocks the activity of CRLs (Figure S13A).

RPMI-8826 = experiment: CellTiter-Glo cell viability assay, RPMI-8826; assay type: cell-based
Experimental: (§1) As TNF-α and related signaling cascades represent crucial factors for the single-agent activity of IAP-targeting compounds,[29],[38],[39],[55] the viability inhibition of sensitive cell lines was evaluated in the presence and absence of this inflammatory stimulus. […] These effects were independent of IAP baseline levels (Figure S16), which is in agreement with the previous studies of IAP antagonists.
(§2) Cells were seeded in 384-well plates with respective treatments, and plates were incubated at 37 °C for 96 h. Viability assays were performed with or without the addition of TNF-α at 1 ng/mL. The cell viability readout was measured using the CellTiter-Glo Luminescent Cell Viability Assay (Promega, Madison, USA) and measured with a Synergy LX Multi-Mode plate reader (BioTek, Vermont, USA). All conditions were normalized to the DMSO-treated control. Data represents the mean ± SD of biological triplicates.

JJN3 = experiment: CellTiter-Glo cell viability assay, JJN3; assay type: cell-based
Experimental: as §1, §2

NCI-H929 = experiment: CellTiter-Glo cell viability assay, NCI-H929; assay type: cell-based
Experimental: as §1, §2

HEL = experiment: CellTiter-Glo cell viability assay, HEL; assay type: cell-based
Experimental: as §1, §2

K562 = experiment: CellTiter-Glo cell viability assay, K562; assay type: cell-based
Experimental: as §1, §2

MOLM13 = experiment: CellTiter-Glo cell viability assay, MOLM13; assay type: cell-based
Experimental: as §1, §2

SUDHL4 = experiment: CellTiter-Glo cell viability assay, SUDHL4; assay type: cell-based
Experimental: as §1, §2

DB = experiment: CellTiter-Glo cell viability assay, DB; assay type: cell-based
Experimental: as §1, §2

SUDHL6 = experiment: CellTiter-Glo cell viability assay, SUDHL6; assay type: cell-based
Experimental: as §1, §2

cIAP2 = cIAP2 (Homo sapiens, UniProt Q13489); experiment: Immunoblotting (western blot) quantification of cIAP2 levels in MM.1S cells
cIAP2, sequence (Q13489 whole entry): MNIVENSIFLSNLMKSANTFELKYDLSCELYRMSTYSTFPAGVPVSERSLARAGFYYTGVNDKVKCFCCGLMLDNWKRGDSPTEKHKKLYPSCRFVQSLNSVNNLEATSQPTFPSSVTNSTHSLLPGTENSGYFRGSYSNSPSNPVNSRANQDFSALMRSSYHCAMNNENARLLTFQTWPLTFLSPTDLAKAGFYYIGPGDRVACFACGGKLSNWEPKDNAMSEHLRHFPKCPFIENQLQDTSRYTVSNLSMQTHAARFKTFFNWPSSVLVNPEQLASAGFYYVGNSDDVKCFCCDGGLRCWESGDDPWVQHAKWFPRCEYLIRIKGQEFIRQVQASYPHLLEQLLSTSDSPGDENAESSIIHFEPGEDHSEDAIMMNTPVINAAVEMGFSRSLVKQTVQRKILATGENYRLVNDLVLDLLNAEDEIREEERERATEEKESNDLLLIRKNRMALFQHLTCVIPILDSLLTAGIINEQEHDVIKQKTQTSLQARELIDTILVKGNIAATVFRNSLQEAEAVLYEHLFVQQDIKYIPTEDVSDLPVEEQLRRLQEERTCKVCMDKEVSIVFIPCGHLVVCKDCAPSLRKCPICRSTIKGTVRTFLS
Experimental: (§3) To evaluate the capability of our panel of hetero-PROTACs for E3 ligase degradation, VHL19, VHL30, CRBN, cIAP1, cIAP2, and XIAP levels were quantified by western blot analyses. […] SDS-PAGE was performed, and proteins were then transferred onto PVDF membranes. Blotted membranes were blocked with 5% milk in Tris-buffered saline/Tween20 (TBST). Primary antibodies were diluted in 5% BSA in TBST, and incubations were performed overnight at 4 °C. Secondary HRP-conjugated antibodies diluted in 5% milk were incubated for 1 h at room temperature. Detection of proteins on PVDF was carried out using the WesternBright ECL HRP substrate or the WesternBright Sirius HRP substrate (Advansta, San Jose, USA) and imaged with LAS 4000× (Fujifilm). Membranes were subjected to 10 min incubation with Restore Western Blot Stripping Buffer (Thermo Fisher Scientific, Waltham, USA), followed by TBST washes. After brief re-activation with methanol, the membranes were blocked, and further probing of proteins was carried out.
(§4) Quantification of blots was performed using ImageJ software (National Institutes of Health).

[2] = Log D7.4 measurement by chromatographic (fast-gradient HPLC) method; settings: pH 7.4
Experimental: The system was calibrated by plotting the retention times of six different drugs (atenolol, metoprolol, labetalol, diltiazem, triphenylene, and permethrin) versus their literature-known log D7.4 in a calibration line (R^2 = 0.99). Subsequently, the mean retention times of the analytes were taken to calculate their log D7.4 values with the aid of the calibration line. At least two independent measurements of each analyte were performed.

XIAP = XIAP (Homo sapiens, UniProt P98170); experiment: Immunoblotting (western blot) quantification of XIAP levels in MM.1S cells; settings: 16 h
XIAP, sequence (P98170 whole entry): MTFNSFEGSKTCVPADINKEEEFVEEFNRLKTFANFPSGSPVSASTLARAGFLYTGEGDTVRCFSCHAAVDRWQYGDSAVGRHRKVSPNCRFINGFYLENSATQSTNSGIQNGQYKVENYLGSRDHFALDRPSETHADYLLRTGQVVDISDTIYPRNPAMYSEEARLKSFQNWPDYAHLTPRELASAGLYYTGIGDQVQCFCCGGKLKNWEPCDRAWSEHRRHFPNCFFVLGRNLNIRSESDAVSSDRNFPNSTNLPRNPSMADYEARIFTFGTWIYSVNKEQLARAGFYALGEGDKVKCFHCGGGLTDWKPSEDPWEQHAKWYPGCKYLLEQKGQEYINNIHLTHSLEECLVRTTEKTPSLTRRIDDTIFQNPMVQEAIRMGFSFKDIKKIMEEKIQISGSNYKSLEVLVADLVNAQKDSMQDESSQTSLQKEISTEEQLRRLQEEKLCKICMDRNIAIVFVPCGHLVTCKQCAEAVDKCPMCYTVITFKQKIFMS

[3] = target: T1, plasma protein (HSA column) (Homo sapiens, UniProt P02768); experiment: Plasma protein binding estimated by HPLC on a […] HSA column; assay type: in vitro ADME; settings: CHIRALPAK HSA column (50 × 3 mm, 5 μm), estimated by an HPLC-based method, read-out: PPB (plasma protein binding) (converted)
T1 construct: purchased
T1 sequence (P02768 25-609): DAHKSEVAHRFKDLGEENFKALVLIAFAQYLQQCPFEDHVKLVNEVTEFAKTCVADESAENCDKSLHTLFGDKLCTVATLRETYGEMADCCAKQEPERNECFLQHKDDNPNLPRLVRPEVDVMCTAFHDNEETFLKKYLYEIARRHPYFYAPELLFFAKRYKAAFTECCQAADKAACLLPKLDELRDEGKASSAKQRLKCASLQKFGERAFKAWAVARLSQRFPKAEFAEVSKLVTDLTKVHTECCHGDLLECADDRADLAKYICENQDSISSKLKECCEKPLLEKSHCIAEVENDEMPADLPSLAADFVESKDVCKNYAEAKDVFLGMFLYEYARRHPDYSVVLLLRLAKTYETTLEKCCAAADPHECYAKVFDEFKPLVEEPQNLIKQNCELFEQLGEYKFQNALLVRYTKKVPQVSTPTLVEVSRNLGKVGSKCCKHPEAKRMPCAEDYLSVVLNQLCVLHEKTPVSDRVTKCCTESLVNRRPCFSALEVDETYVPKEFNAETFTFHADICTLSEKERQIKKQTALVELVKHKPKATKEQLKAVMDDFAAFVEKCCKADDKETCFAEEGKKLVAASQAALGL
Experimental: Plasma protein binding (% PPB) was estimated by correlating the logarithmic retention times of the analytes on a […] HSA 50 × 3 mm, 5 μm column with the literature-known % PPB values (converted into log K values) of the following drugs: warfarin, ketoprofen, budesonide, nizatidine, indomethacin, acetylsalicylic acid, carbamazepine, piroxicam, nicardipine, and cimetidine (for details, see Valko et al.).[67] The samples were dissolved in MeCN/DMSO 9:1 to achieve a final concentration of 0.5 mg/mL. Mobile phase A was 50 mM ammonium acetate adjusted to pH 7.4 with ammonia solution, while mobile phase B was iPrOH. The flow rate was set to 1.0 mL/min, the UV detector was set to 254 nm, and the column temperature was kept at 30 °C. After injecting 2 μL of the sample, a linear gradient from 100% A to 30% iPrOH in 5.4 min was applied. From 5.4 to 18 min, 30% iPrOH was kept, followed by switching back to 100% A in 1.0 min and a re-equilibration time of 6 min. With the aid of the calibration line (R^2 = 0.96), the log K values of new substances were calculated and converted to their % PPB values.

CRBN = CRBN (Homo sapiens, UniProt Q96SW2); experiment: Immunoblotting (western blot) quantification of CRBN levels in MM.1S cells; settings: MM1.S, 16 h, read-out: %remaining protein CRBN
CRBN, sequence (Q96SW2 whole entry): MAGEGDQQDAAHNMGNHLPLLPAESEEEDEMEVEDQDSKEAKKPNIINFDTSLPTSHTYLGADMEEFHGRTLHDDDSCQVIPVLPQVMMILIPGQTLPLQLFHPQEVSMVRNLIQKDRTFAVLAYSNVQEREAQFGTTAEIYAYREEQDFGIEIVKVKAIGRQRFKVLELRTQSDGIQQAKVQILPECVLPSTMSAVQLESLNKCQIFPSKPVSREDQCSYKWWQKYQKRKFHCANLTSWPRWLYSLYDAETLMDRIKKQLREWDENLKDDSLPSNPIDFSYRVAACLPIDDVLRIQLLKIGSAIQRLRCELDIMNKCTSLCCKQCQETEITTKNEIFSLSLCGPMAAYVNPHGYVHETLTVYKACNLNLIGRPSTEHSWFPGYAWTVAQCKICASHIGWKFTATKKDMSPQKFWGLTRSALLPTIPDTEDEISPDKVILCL
Experimental: as §3, §4

cIAP1 = cIAP1 (Homo sapiens, UniProt Q13490); experiment: Immunoblotting (western blot) quantification of cIAP1 levels in MM.1S cells; settings: MM1.S, 16 h, read-out: %remaining protein cIAP1, MM.1S cells, 16 h treatment at 0.1 μM, normalized to loading control and DMSO
cIAP1, sequence (Q13490 whole entry): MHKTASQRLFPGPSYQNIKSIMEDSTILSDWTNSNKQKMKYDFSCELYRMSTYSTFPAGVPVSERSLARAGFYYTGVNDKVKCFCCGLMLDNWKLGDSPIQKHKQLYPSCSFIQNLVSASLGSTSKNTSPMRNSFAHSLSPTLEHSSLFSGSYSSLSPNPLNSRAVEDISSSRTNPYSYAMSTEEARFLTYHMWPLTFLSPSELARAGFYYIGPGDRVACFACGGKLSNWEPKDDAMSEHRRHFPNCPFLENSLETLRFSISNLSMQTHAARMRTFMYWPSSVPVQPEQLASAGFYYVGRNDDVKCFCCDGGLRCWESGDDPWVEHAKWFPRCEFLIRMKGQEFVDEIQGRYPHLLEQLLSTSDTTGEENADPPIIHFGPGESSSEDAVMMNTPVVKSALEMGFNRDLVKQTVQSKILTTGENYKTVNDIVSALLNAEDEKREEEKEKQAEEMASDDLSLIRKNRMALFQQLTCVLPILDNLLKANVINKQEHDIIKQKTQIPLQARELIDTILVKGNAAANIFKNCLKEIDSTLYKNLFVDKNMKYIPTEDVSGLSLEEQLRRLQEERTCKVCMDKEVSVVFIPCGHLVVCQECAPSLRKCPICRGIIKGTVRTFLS

IKZF3 = experiment: Immunoblotting (western blot) quantification of IKZF3 levels in MM.1S cells
Experimental: as §3, §4

[4] = MM cell line, 96 h, TNFα-challenged, read-out: IC50 cell viability RPMI-8826
[5] = SI csv, head prints only the cell line, no quantity or unit, values parallel Table 1/S8, read-out: RPMI-8826
[6] = Homo sapiens, JJN-3, SI csv, head prints only the cell line, no quantity or unit, values parallel Table 1/S8, read-out: JJN3
[7] = Homo sapiens, SI csv, head prints only the cell line, no quantity or unit, values parallel Table 1/S8, read-out: NCI-H929
[8] = Homo sapiens, SI csv, head prints only the cell line, no quantity or unit, values parallel Table 1/S8, read-out: K562
[9] = Homo sapiens, SU-DHL-4, SI csv, head prints only the cell line, no quantity or unit, values parallel Table 1/S8, read-out: SUDHL4

Molecule: VH298 [reference compound]
IAP degradation profile (in words) [1]: did not affect the levels of IAPs; also recorded: has no effects on the investigated proteins
IC50 (RPMI-8826; [4]): > 10 µM
IC50 (JJN3; MM cell line, 96 h, TNFα-challenged, read-out: IC50 cell viability JJN3): > 10 µM
IC50 (NCI-H929; MM cell line, 96 h, TNFα-challenged, read-out: IC50 cell viability NCI-H929): > 10 µM
IC50 (HEL; AML cell line, 96 h, TNFα-challenged, read-out: IC50 cell viability HEL): > 10 µM
IC50 (K562; AML cell line, 96 h, TNFα-challenged, read-out: IC50 cell viability K562): > 10 µM
IC50 (MOLM13; AML cell line, 96 h, TNFα-challenged, read-out: IC50 cell viability MOLM13): > 10 µM
IC50 (SUDHL4; DLBCL cell line, 96 h, TNFα-challenged, read-out: IC50 cell viability SUDHL4): > 10 µM
IC50 (DB; DLBCL cell line, 96 h, TNFα-challenged, read-out: IC50 cell viability DB): > 10 µM
IC50 (SUDHL6; DLBCL cell line, 96 h, TNFα-challenged, read-out: IC50 cell viability SUDHL6): > 10 µM
%remaining protein cIAP2 (cIAP2; MM.1S cells, 16 h treatment at 0.1 μM, normalized to loading control and DMSO): 81%

IC50 (NCI-H929; [7]): 1.99 µM
IC50 (K562; [8]): 0.84 µM
IC50 (MOLM13; Homo sapiens, MOLM-13, SI csv, head prints only the cell line, no quantity or unit, values parallel Table 1/S8, read-out: MOLM13): 0.63 µM
IC50 (SUDHL4; [9]): 1 µM
IC50 (SUDHL6; Homo sapiens, SU-DHL-6, SI csv, head prints only the cell line, no quantity or unit, values parallel Table 1/S8, read-out: SUDHL6): 0.44 µM
chromatographic logD [2]: 6
remaining protein cIAP2 (cIAP2; MM.1S cells, 16 h, 1 μM): 32%
Molecule: CN[C@@H](C)C(=O)N[C@H](C(=O)N1C[C@@H](Oc2cccc(OCCOCCCCCCOCCCCCCNc3cccc4c3C(=O)N(C3CCC(=O)N(C)C3=O)C4=O)c2)C[C@H]1C(=O)N[C@@H]1CCCc2ccccc21)C1CCCCC1 (stereo partly drawn) [PROTAC 28, (2S,4S)-1-((S)-2-Cyclohexyl-2-((S)-2-(methylamino)propanamido)acetyl)-4-(3-(2-((6-((6-((2-(1-methyl-2,6-dioxopiperidin-3-yl)-1,3-dioxoisoindolin-4-yl)amino)hexyl)oxy)hexyl)oxy)ethoxy)phenoxy)-N-((R)-1,2,3,4-tetrahydronaphthalen-1-yl)pyrrolidine-2-carboxamide]
IC50 (RPMI-8826; [5]): 1.01 µM
IC50 (JJN3; [6]): 0.9 µM
IC50 (HEL; Homo sapiens, SI csv, head prints only the cell line, no quantity or unit, values parallel Table 1/S8, read-out: HEL): 0.77 µM
IC50 (DB; Homo sapiens, SI csv, head prints only the cell line, no quantity or unit, values parallel Table 1/S8, read-out: DB): 0.57 µM
XIAP degradation (in words) (XIAP; MM.1S cells, western blot, 0.1 or 1 μM): failed to degrade XIAP at 1 μM concentration; also recorded: only marginally degrades XIAP

Molecule: CN[C@@H](C)C(=O)N[C@H](C(=O)N1C[C@@H](Oc2cccc(OCCCCOCCCCNc3cccc4c3C(=O)N(C3CCC(=O)NC3=O)C4=O)c2)C[C@H]1C(=O)N[C@@H]1CCCc2ccccc21)C1CCCCC1 (stereo partly drawn) [PROTAC 22, (2S,4S)-1-((S)-2-Cyclohexyl-2-((S)-2-(methylamino)propanamido)acetyl)-4-(3-(4-(4-((2-(2,6-dioxopiperidin-3-yl)-1,3-dioxoisoindolin-4-yl)amino)butoxy)butoxy)phenoxy)-N-((R)-1,2,3,4-tetrahydronaphthalen-1-yl)pyrrolidine-2-carboxamide]
IAP degradation profile (in words) [1]: pronounced pan-IAP depletion
fraction unbound at 0.5 mg/mL [3]: 0.04
chromatographic logD [2]: 4.9
remaining activity at 0.1 µM (XIAP; MM1.S, read-out: %remaining protein XIAP, MM.1S cells, 16 h treatment at 0.1 μM, normalized to loading control and DMSO): 2%
remaining activity at 0.1 µM (CRBN): 77%
remaining activity at 0.1 µM (cIAP1): 3%
remaining activity at 0.1 µM (cIAP2; MM1.S, 16 h, read-out: %remaining protein cIAP2, MM.1S cells, 16 h treatment at 0.1 μM, normalized to loading control and DMSO): 7%
IKZF3 degradation (in words) (IKZF3; 16 h, 1 μM): substantial IKZF3 degradation at 1 μM
%remaining protein IKZF3 (IKZF3; 16 h treatment at 0.1 μM, normalized to loading control and DMSO): 61%
IKZF3 degraded (IKZF3; 16 h treatment, 0.1 μM): approximately 40%

IC50 (NCI-H929; Homo sapiens, NCI-H929, MM cell line, 96 h, TNFα-challenged, read-out: IC50 cell viability NCI-H929): > 5 µM
IC50 (NCI-H929; [7]): > 10 µM
IC50 (K562; Homo sapiens, K562, AML cell line, 96 h, TNFα-challenged, read-out: IC50 cell viability K562): > 5 µM
IC50 (K562; [8]): > 10 µM
IC50 (MOLM13; Homo sapiens, MOLM-13, AML cell line, 96 h, TNFα-challenged, read-out: IC50 cell viability MOLM13): > 1 µM
IC50 (SUDHL4; Homo sapiens, SU-DHL-4, DLBCL cell line, 96 h, TNFα-challenged, read-out: IC50 cell viability SUDHL4): > 5 µM
IC50 (SUDHL4; [9]): > 10 µM
IC50 (SUDHL6; Homo sapiens, SU-DHL-6, DLBCL cell line, 96 h, TNFα-challenged, read-out: IC50 cell viability SUDHL6): 0.17 µM
chromatographic logD [2]: 3.3
Molecule: CN[C@@H](C)C(=O)N[C@H](C(=O)N1C[C@@H](Oc2cccc(OCCCCC(=O)N[C@H](C(=O)N3C[C@@H](O)C[C@H]3C(=O)NCc3ccc(-c4scnc4C)cc3)C(C)(C)C)c2)C[C@H]1C(=O)N[C@@H]1CCCc2ccccc21)C1CCCCC1 [PROTAC 11, (2S,4S)-1-((S)-2-Cyclohexyl-2-((S)-2-(methylamino)propanamido)acetyl)-4-(3-((5-(((S)-1-((2S,4S)-4-hydroxy-2-((4-(4-methylthiazol-5-yl)benzyl)carbamoyl)pyrrolidin-1-yl)-3,3-dimethyl-1-oxobutan-2-yl)amino)-5-oxopentyl)oxy)phenoxy)-N-((R)-1,2,3,4-tetrahydronaphthalen-1-yl)pyrrolidine-2-carboxamide]
IAP degradation profile (in words) [1]: induce only cIAP1 degradation; also recorded: only induced cIAP1 degradation
IC50 (RPMI-8826; [4]): > 5 µM
IC50 (RPMI-8826; [5]): > 10 µM
IC50 (JJN3; Homo sapiens, JJN-3, MM cell line, 96 h, TNFα-challenged, read-out: IC50 cell viability JJN3): > 5 µM
IC50 (JJN3; [6]): > 10 µM
IC50 (HEL; Homo sapiens, HEL, AML cell line, 96 h, TNFα-challenged, read-out: IC50 cell viability HEL): > 10 µM
IC50 (DB; Homo sapiens, DB, DLBCL cell line, 96 h, TNFα-challenged, read-out: IC50 cell viability DB): > 5 µM
